Laboratory results published in patent US20130131008A1, “LIPOPHILIC MONOPHOSPHORYLATED DERIVATIVES AND NANOPARTICLES” (BOARD OF REGENTS, THE UNIVERSITY OF TEXAS SYSTEM, priority 2011, published 2013).
Like-named read-outs stand apart in the source and are kept apart here.

What was measured:
[1] = tested on: MIA PaCa-2 cells; assay: In vitro cytotoxicity assay (MTT), 96 h; assay type: cell-based, human; settings: Homo sapiens, MIA PaCa-2, 96 h incubation
Excerpt: (§1) Human leukemia cell line CCRF-CEM (CCL-119), human pancreatic cancer cell lines PANC-1 (CRL-1469), MIA PaCa-2 (CRL-1420), and BxPC-3 (CRL-1687), human breast adenocarcinoma cell line MCF-7 (HTB-22), and mouse lung cancer cell line TC-1 (CRL-2785) were from the American Type Culture Collection (Rockville, Md.). CCRF-CEM-AraC-8C cells (hENT1 deficient) and CCRF-CEM/dCK^−/− cells (dCK deficient) were kindly provided by Dr. Buddy Ullmann (Oregon Health & Science University, Portland, Oreg.) and Dr. Margaret Black (Washington State University, Pullman, Wash.), respectively. L1210 wt and L1210 10K were kindly supplied by Dr. Lars Petter Jordheim (Université Claude Bernard Lyon I, Lyon, France). TC-1-GR cells were previously developed in our lab. CCRF-CEM, CCRF-CEM-AraC-8C, CCRF-CEM/dCK^−/−, L1210 wt, L1210 10K, TC-1, and TC-1-GR cells were cultured in RPMI 1640 medium. MCF-7 and PANC-1 cells were cultured in Dulbecco's modified Eagle medium (DMEM), MIA PaCa-2 cells were cultured in DMEM medium with 2.5% horse serum. All media were supplemented with 10% fetal bovine serum (FBS), 100 U/mL of penicillin, and 100 μg/mL of streptomycin (all from Invitrogen, Carlsbad, Calif.).
(§2) Cells (5,000/well) were seeded in 96-well plates. After overnight incubation, they were treated with various concentrations of gemcitabine HCl, gemcitabine derivatives, or gemcitabine derivatives in nanoparticles at 37° C., 5% CO2. TC-1 and TC-1-GR cells were incubated for 48 h. CCRF-CEM, CCRF-CEM-AraC-8C, CCRF-CEM/dCK^−/−, L1210 wt, L1210 10K, and MCF-7 cells were incubated for 72 h, and MIA PaCa-2 and PANC-1 for 96 h. Gemcitabine HCl was dissolved in phosphate-buffered saline (PBS), and gemcitabine derivatives were dissolved in dimethyl sulfoxide (DMSO). […] The number of viable cells after the incubation was determined using an MTT assay. Briefly, 3-(4,5-dimethylthiazol-2-yl)-2,5-diphenyltetrazolium bromide (20 μl, 5 mg/mL) was added in each well and incubated for 3 h. Formazan crystals were solubilized with acidified isopropanol (150 μl) (for CCRF-CEM, CCRF-CEM-AraC-8C, CCRF-CEM/dCK^−/−, L1210 wt, and L1210 10K cells) or DMSO (150 μl) (for TC-1, TC-1-GR, MCF-7, PANC-1, and MIA PaCa-2). Absorbance was measured using a BioTek Synergy™ HT Multi-Mode Microplate Reader (BioTek Instruments, Winooski, Vt.) at 570 nm and 630 nm. The fraction of affected (dead) cells (Fa) and the fraction of unaffected (live) cells (Fu) at every dose were calculated, and the Log(Fa/Fu) values were plotted against the Log(concentration of gemcitabine). IC50 was the dose at Log(Fa/Fu)=0, See e.g., Chou, T. C. & Talalay, P., 1984, Adv. Enzyme Regul. 22:27-55. The experiment was repeated at least three times.

[2] = tested on: L1210 10K cells; assay: In vitro cytotoxicity assay (MTT), 72 h, dCK deficient cells; assay type: cell-based, murine
Excerpt: as §1
(§3) Cells (5,000/well) were seeded in 96-well plates. After overnight incubation, they were treated with various concentrations of gemcitabine HCl, gemcitabine derivatives, or gemcitabine derivatives in nanoparticles at 37° C., 5% CO2. TC-1 and TC-1-GR cells were incubated for 48 h. CCRF-CEM, CCRF-CEM-AraC-8C, CCRF-CEM/dCK^−/−, L1210 wt, L1210 10K, and MCF-7 cells were incubated for 72 h, and MIA PaCa-2 and PANC-1 for 96 h. […] The number of viable cells after the incubation was determined using an MTT assay. […] Absorbance was measured using a BioTek Synergy™ HT Multi-Mode Microplate Reader (BioTek Instruments, Winooski, Vt.) at 570 nm and 630 nm. The fraction of affected (dead) cells (Fa) and the fraction of unaffected (live) cells (Fu) at every dose were calculated, and the Log(Fa/Fu) values were plotted against the Log(concentration of gemcitabine). […]

[3] = tested on: PANC-1 cells; assay: Trypan blue exclusion assay of cell viability; assay type: cell-based, human; settings: 400 μM
Protocol: Cell viability was determined using a trypan blue exclusion assay. Data shown are mean±S.D. (S.D.: standard deviation) (n=3). Experiment was repeated twice.

[4] = tested on: CCRF-CEM-AraC-8C cells; assay: In vitro cytotoxicity assay (MTT), 72 h, hENT1 deficient cells; assay type: cell-based, human; settings: for Ratio of IC50 in CCRF-CEM-AraC-8C to that in CCRF-CEM: HCl
Excerpt: as §1, §2

[5] = tested on: CCRF-CEM/dCK−/− cells; assay: In vitro cytotoxicity assay (MTT), 72 h, dCK deficient cells; assay type: cell-based, human
Excerpt: as §1, §3

[6] = tested on: MIA PaCa-2 cells; settings: literature value; read-out: IC50 in MIA PaCa-2 cells reported by Duxbury et al.; cited from earlier work
[7] = tested on: CCRF-CEM cells; assay: In vitro cytotoxicity assay (MTT), 72 h; assay type: cell-based, human; settings: Homo sapiens, CCRF-CEM, 72 h incubation
Excerpt: as §1, §2

[8] = tested on: L1210 wt cells; assay: In vitro cytotoxicity assay (MTT), 72 h; assay type: cell-based, murine; settings: Mus musculus, 72 h incubation
Excerpt: as §1, with “MCF-7 and PANC-1 cells were cultured in Dulbecco's modified Eagle medium (DMEM), MIA PaCa-2 cells were cultured in DMEM medium with 2.5% horse serum. All media were supplemented with 10% fetal bovine serum (FBS), 100 U/mL of penicillin, and 100 μg/mL of streptomycin (all from Invitrogen, Carlsbad, Calif.).” left out
Cells (5,000/well) were seeded in 96-well plates. […] The number of viable cells after the incubation was determined using an MTT assay. […] Absorbance was measured using a BioTek Synergy™ HT Multi-Mode Microplate Reader (BioTek Instruments, Winooski, Vt.) at 570 nm and 630 nm. The fraction of affected (dead) cells (Fa) and the fraction of unaffected (live) cells (Fu) at every dose were calculated, and the Log(Fa/Fu) values were plotted against the Log(concentration of gemcitabine). […]

[9] = tested on: TC-1-GR cells; assay: cells; assay type: cell-based
Excerpt: as §1, §2

[10] = tested on: TC-1 mouse lung cancer cells (s.c. tumors); assay: Anti-tumor activity of PLGA-GemC18-NPs in TC-1 tumor-bearing mice (Example 19); assay type: in vivo; settings: C57BL/6 mice, i.v. twice a week from day 11, 150 μg GemC18 per mouse per dose or molar equivalent gemcitabine HCl
Protocol: The anti-tumor activity of the PLGA-GemC18-NPs was evaluated in female C57BL/6 mice (18-20 g, 6-8 weeks, n=4-5) that were subcutaneously (s.c.) injected with TC-1 mouse lung cancer cells (ATCC # CRL-2785, 5×10^5 cells/mouse) in the right flank. Mouse hair was carefully trimmed at the injection site 1 day prior to the injection. PLGA-GemC18-NPs, GemC18-free NP (PLGA-NPs), gemcitabine hydrochloride (HCl) (U.S. Pharmacopeia; Rockville, Md.) and sterile mannitol (5%, w/v) were intravenously (i.v) injected starting on day 11, twice a week until the end of the study. The dose of the GemC18 was 150 μg per mouse per dose, or the molar equivalent dose for gemcitabine HCl. Tumor size was determined 2-3 times a week and calculated using the formulas: diameter (mm)=[length+width]/2.

[11] = tested on: TC-1 cells; assay: In vitro cytotoxicity assay (MTT), 48 h; assay type: cell-based; settings: Mus musculus, TC-1, 48 h incubation
Excerpt: as §1, §2

[12] = tested on: PANC-1 cells; assay: In vitro cytotoxicity assay (MTT), 96 h, RRM2 over-expressing cells; assay type: cell-based, human; settings: for Ratio of IC50 in PANC-1 to that in MIA PaCa-2: HCl
Excerpt: as §1, §2

[13] = IC50 of gemcitabine HCl divided by that of the derivatives or derivatives in nanoparticles

In the case of `Cl.Nc1ccn([C@@H]2O[C@H](CO)[C@@H](O)C2(F)F)c(=O)n1` [Gemcitabine HCl, 2′,2′-difluorodeoxycytidine HCl, reference compound], the IC50 [1] is reported as 49.7 ± 17.7 nM, the “Ratio of IC50 in L1210 10K to that in L1210 wt” value [2] is reported as 17,046 and the “Ratio of IC50 values in L1210 10K cells” value ([2]; IC50 of gemcitabine HCl divided by that of the nanoparticles) is reported as 1. For the same compound, the IC50 ([2]; Mus musculus, L1210, MTT, 72 h incubation, dCK deficient) was 22200 ± 3700 nM, the “Time to kill 50% of PANC-1 cells” value [3] was 116 h and the “Ratio of IC50 in CCRF-CEM-AraC-8C to that in CCRF-CEM” value [4] was 333. For the same compound, the IC50 ([4]; Homo sapiens, MTT, 72 h incubation, hENT1 deficient) was 998.8 ± 9.4 nM, the “Ratio of IC50 values in CEM-AraC-8C cells” value [4, 13] was 1 and the “Ratio of IC50 in CCRF-CEM-AraC-8C to that in CCRF-CEM” value ([4]; listed as gemcitabine HCl) was 344. The “Ratio of IC50 in CCRF-CEM/dCK−/− to that in CCRF-CEM” value [5] was 82,897, the IC50 ([5]; Homo sapiens, CCRF-CEM, MTT, 72 h incubation, dCK deficient) was 240000 ± 29000 nM and the IC50 [6] was 40 nM. The IC50 [7] was 2.9 ± 1.8 nM, the IC50 [8] was 1.3 ± 0.3 nM and the “Ratio of IC50 in TC-1-GR to that in TC-1” value [9] was 2,497. The “Ratio of IC50 values in TC-1-GR cells” value [9, 13] was 1, the IC50 ([9]; Mus musculus, MTT, 48 h incubation, RRM1 over-expressing) was 36700 ± 5100 nM and the “TC-1 tumor growth (tumor diameter)” value [10] was “only slightly delayed the TC-1 tumor growth”. For the same compound, the IC50 [11] was 14.7 ± 2.8 nM, the “Ratio of IC50 in PANC-1 to that in MIA PaCa-2” value [12] was >8,000 and the IC50 ([12]; Homo sapiens, PANC-1, MTT, 96 h incubation, RRM2 over-expressing) was greater than 400000 nM. The “PANC-1 cells still alive” value ([12]; after 96 h of incubation with 400 μM) was “more than 50%” and the “Ratio of IC50 in PANC-1 to that in MIA PaCa-2” value ([12]; listed as gemcitabine HCl) was “more than 8,000”.
